The values below come from patent US9688615B2, “Benzimidazole inhibitors of the sodium channel” (Mark G. DeGiacomo, priority 2011, dated 2017).

Read-outs that look alike come from different tables or passages of the source.

The assay concerns L5/L6 spinal nerve ligation (SNL) rats, mechanical hyperalgesia. Put plainly: L5/L6 Spinal Nerve Ligation (SNL) Chung pain model, assessment of mechanical hyperalgesia (digital Randall-Selitto). The class given is in vivo, male Sprague-Dawley rats. Conditions: p.o.; for Response Threshold (g) 1 hr / Response Threshold (g) 2 hr / Response Threshold (g) 4 hr / effect on mechanical hyperalgesia compared to vehicle treated animals / inhibition in vivo at 30 mg/kg: 30 mg/kg; for effect on mechanical hyperalgesia compared to vehicle treated animals: time points 1, 2, 4 hours after administration. The text has this: The Spinal Nerve Ligation is an animal model representing peripheral nerve injury generating a neuropathic pain syndrome. In this model experimental animals develop the clinical symptoms of tactile allodynia and hyperalgesia. L5/L6 Spinal nerve ligation (SNL) injury was induced using the procedure of Kim and Chung (Kim et al., Pain 50:355-363 (1992)) in male Sprague-Dawley rats (Harlan; Indianapolis, Ind.) weighing 200 to 250 grams. An exemplary protocol is provided below
The animals were anesthetized with isoflurane, the left L6 transverse process was removed, and the L5 and L6 spinal nerves were tightly ligated with 6-0 silk suture. The wound was closed with internal sutures and external tissue adhesive.
Baseline and post-treatment values for mechanical hyperalgesia were evaluated using a digital Randall-Selitto device (dRS; IITC Life Sciences, Woodland Hills, Calif.). Animals were allowed to acclimate to the testing room for a minimum of 30 minutes before testing. Animals were placed in a restraint sling that suspends the animal, leaving the hind limbs available for testing. Paw compression threshold was measured once at each time point for the ipsilateral and contralateral paws. The stimulus was applied to the plantar surface of the hind paw by a dome-shaped tip placed between the 3rd and 4th metatarsus, and pressure was applied gradually over approximately 10 seconds. Measurements are taken from the first observed nocifensive behavior of vocalization, struggle or withdrawal. A cut-off value of 300 g was used to prevent injury to the animal. The mean and standard error of the mean (SEM) were determined for each paw for each treatment group. Fourteen days after surgery, mechanical hyperalgesia was assessed and rats were assigned to treatment groups based on pre-treatment baseline values. Prior to initiating drug delivery, baseline behavioural testing data can be obtained. At selected times after infusion of the Test or Control Article behavioural data can then be collected again.

The mark [1] stands for this setting: Rattus norvegicus, po, 1 hr after administration, read-out: % Reversal 1 hr.
Where [2] appears, read: Rattus norvegicus, po, 2 hr after administration, read-out: % Reversal 2 hr.
The mark [3] stands for this setting: Rattus norvegicus, po, 4 hr after administration, read-out: % Reversal 4 hr.

On to `CC(C)C[C@H](CN)Cc1nc2c(C(F)(F)F)cc(C(F)(F)F)cc2[nH]1` [Compound (31), (S)-2-((4,6-bis(trifluoromethyl)-1H-benzo[d]imidazol-2-yl)methyl)-4-methylpentan-1-amine], for which the “effect on mechanical hyperalgesia compared to vehicle treated animals” value (“effect … compared to vehicle treated animals” for short) was “significantly decreased mechanical hyperalgesia 2 and 4 hours”. Also, the “Response Threshold (g) 1 hr” value (1 hr after administration) was 107.9 g. Moreover, the “Response Threshold (g) 2 hr” value (2 hr after administration) worked out at 139.0 g. Under “4 hr after administration”, the “Response Threshold (g) 4 hr” value worked out at 109.9 g. The inhibition in vivo at 30 mg/kg under setting [1] turned out to be 17.2%. Besides, the inhibition in vivo at 30 mg/kg under setting [2] was 48%. Also, the inhibition in vivo at 30 mg/kg under setting [3] came out at 19.2%.
Regarding `CC(C)(N)C(=O)NCc1nc2cc(C(F)(F)F)cc(C(F)(F)F)c2[nH]1` [Compound (36), 2-amino-N-((5,7-bis(trifluoromethyl)-1H-benzo[d]imidazol-2-yl)methyl)-2-methylpropanamide], the “effect … compared to vehicle treated animals” value is “no significant effect on mechanical hyperalgesia at any time point tested”. Moreover, the “Response Threshold (g) 1 hr” value (1 hr after administration) is given as 87.8 g. Further, where the note is “2 hr after administration”, the “Response Threshold (g) 2 hr” value came to 107.0 g. The “Response Threshold (g) 4 hr” value (4 hr after administration) is listed as 112.3 g. In addition, the inhibition in vivo at 30 mg/kg under setting [1] was -0.5%. Further, the inhibition in vivo at 30 mg/kg under setting [2] turned out to be 18.6%. Moreover, the inhibition in vivo at 30 mg/kg under setting [3] amounted to 23.8%.
With `CC(C)(N)Cc1nc2cc(C(F)(F)F)cc(C(F)(F)F)c2[nH]1` [Compound (34), 1-(5,7-bis(trifluoromethyl)-1H-benzo[d]imidazol-2-yl)-2-methylpropan-2-amine], the “effect … compared to vehicle treated animals” value was “significantly decreased mechanical hyperalgesia 2 and 4 hours”. For the same compound, the “Response Threshold (g) 1 hr” value (1 hr after administration) was determined as 104.5 g. Moreover, the “Response Threshold (g) 2 hr” value (2 hr after administration) is reported as 144.8 g. Moreover, for the setting “4 hr after administration”, the “Response Threshold (g) 4 hr” value was 132.4 g. In addition, the inhibition in vivo at 30 mg/kg under setting [1] came out at 15.3%. The inhibition in vivo at 30 mg/kg under setting [2] was 54.2%. The inhibition in vivo at 30 mg/kg under setting [3] was 42.3%.
As for `NCCc1nc2cc(C(F)(F)F)cc(C(F)(F)F)c2[nH]1` [Compound (33), 2-(5,7-bis(trifluoromethyl)-1H-benzo[d]imidazol-2-yl)ethanamine], the “effect … compared to vehicle treated animals” value was “significantly decreased mechanical hyperalgesia at 1, 2 and 4 hours”. The “Response Threshold (g) 1 hr” value (1 hr after administration) was 113.6 g. For the same compound, where the note is “2 hr after administration”, the “Response Threshold (g) 2 hr” value was determined as 136.9 g. In addition, the “Response Threshold (g) 4 hr” value (4 hr after administration) is reported as 150.8 g. Moreover, the inhibition in vivo at 30 mg/kg under setting [1] was 22.4%. For the same compound, the inhibition in vivo at 30 mg/kg under setting [2] came out at 44.7%. For the same compound, the inhibition in vivo at 30 mg/kg under setting [3] was found to be 58.1%.
For the compound `FC(F)(F)c1cc(C(F)(F)F)c2nc(CC3CNC3)[nH]c2c1` [Compound (1), 2-(azetidin-3-ylmethyl)-4,6-bis(trifluoromethyl)-1H-benzo[d]imidazole], the “effect … compared to vehicle treated animals” value was “significantly decreased mechanical hyperalgesia at 2 and 4 hours”. The “Response Threshold (g) 1 hr” value (1 hr after administration) is 93.8 g. Further, the “Response Threshold (g) 2 hr” value (2 hr after administration) is listed as 120.6 g. For the same compound, the “Response Threshold (g) 4 hr” value (4 hr after administration) is given as 113.3 g. Further, the inhibition in vivo at 30 mg/kg under setting [1] came to 9.2%. Moreover, under setting [2], the inhibition in vivo at 30 mg/kg came out at 30.2%. Moreover, the inhibition in vivo at 30 mg/kg under setting [3] was determined as 24.4%.
Regarding `O=C1CNCCN1Cc1nc2cc(C(F)(F)F)cc(C(F)(F)F)c2[nH]1` [Compound (110), 1-((5,7-bis(trifluoromethyl)-1H-benzo[d]imidazol-2-yl)methyl)piperazin-2-one], the “effect … compared to vehicle treated animals” value was “significantly decrease mechanical hyperalgesia at two and four hours”. For the setting “1 hr after administration”, the “Response Threshold (g) 1 hr” value is 100.6 g. Further, for the setting “2 hr after administration”, the “Response Threshold (g) 2 hr” value turned out to be 148.5 g. For the same compound, the “Response Threshold (g) 4 hr” value (4 hr after administration) is 126.1 g. Also, the inhibition in vivo at 30 mg/kg under setting [1] is 14.6%. Further, the inhibition in vivo at 30 mg/kg under setting [2] worked out at 51.2%. Further, under setting [3], the inhibition in vivo at 30 mg/kg turned out to be 34.1%.
With `NCC(=O)NCc1nc2cc(C(F)(F)F)cc(C(F)(F)F)c2[nH]1` [Compound (24), 2-amino-N-((5,7-bis(trifluoromethyl)-1H-benzo[d]imidazol-2-yl)methyl)acetamide], the “effect … compared to vehicle treated animals” value is given as “no significant effect on mechanical hyperalgesia at any time point tested”. Besides, the “Response Threshold (g) 1 hr” value (1 hr after administration) worked out at 84.0 g. The “Response Threshold (g) 2 hr” value (2 hr after administration) is 118.4 g. For the setting “4 hr after administration”, the “Response Threshold (g) 4 hr” value stood at 116.6 g. Moreover, the inhibition in vivo at 30 mg/kg under setting [1] turned out to be 0.8%. Besides, under setting [2], the inhibition in vivo at 30 mg/kg amounted to 27.9%. Besides, under setting [3], the inhibition in vivo at 30 mg/kg came out at 26.5%.
`CNCc1nc2cc(C(F)(F)F)cc(C(F)(F)F)c2[nH]1` [Compound (41), 1-(5,7-bis(trifluoromethyl)-1H-benzo[d]imidazol-2-yl)-N-methylmethanamine]: the “effect … compared to vehicle treated animals” value is “significantly decreased mechanical hyperalgesia at 2 and 4 hours”. Further, the “Response Threshold (g) 1 hr” value (1 hr after administration) came to 99.6 g. For the same compound, under “2 hr after administration”, the “Response Threshold (g) 2 hr” value was 108.3 g. Moreover, for the setting “4 hr after administration”, the “Response Threshold (g) 4 hr” value is listed as 109.0 g. Moreover, under setting [1], the inhibition in vivo at 30 mg/kg turned out to be 13.8%. The inhibition in vivo at 30 mg/kg under setting [2] is 20.7%. Besides, under setting [3], the inhibition in vivo at 30 mg/kg is 21.3%.
Take `CN(Cc1nc2cc(C(F)(F)F)cc(C(F)(F)F)c2[nH]1)S(N)(=O)=O` [Compound (56), N-{[4,6-bis(trifluoromethyl)-1H-benzimidazol-2-yl]methyl}-N-methylsulfuric diamide]: the “effect … compared to vehicle treated animals” value was “significantly decreased mechanical hyperalgesia 2 and 4 hours”. Further, the “Response Threshold (g) 1 hr” value (1 hr after administration) is on record as 110.8 g. Besides, where the note is “2 hr after administration”, the “Response Threshold (g) 2 hr” value is recorded as 131.4 g. Besides, where the note is “4 hr after administration”, the “Response Threshold (g) 4 hr” value turned out to be 140.4 g. For the same compound, under setting [1], the inhibition in vivo at 30 mg/kg was found to be 19.8%. Under setting [2], the inhibition in vivo at 30 mg/kg turned out to be 40.4%. Besides, under setting [3], the inhibition in vivo at 30 mg/kg was determined as 49.4%.
Turning to `NCC1(CC(=O)O)CCCCC1` [Gabapentin], the inhibition in vivo at 100 mg/kg (Rattus norvegicus, po, 2 h, 100 mg/kg, 2 hr after administration, read-out: % Reversal 2 hr) is 55.3%.
